Laboratory results published in paper PMC7845594, “Novel Immune Modulators Enhance Caenorhabditis elegans Resistance to Multiple Pathogens” (mSphere, 2021).
Several values for one entry are separate records, joined by “and”; a condition that tells them apart may be missing. Identical values can stand only once.

Tests used:
[1] = system: glp-4(bn2) worms exposed to E. faecalis strain OG1RF; assay: E. faecalis infection assay (liquid); type: in vivo, Caenorhabditis elegans; conditions: glp-4(bn2) worms, 80 h; ± 95% confidence interval
Protocol: Enterococcus faecalis and Staphylococcus aureus are Gram-positive bacterial species frequently responsible for nosocomial infections ([24], [25]). These bacterial species readily infect C. elegans and liquid-based pathogenesis models have been developed for each ([26][–][28]). Sterile, young adult glp-4(bn2) worms were incubated with either E. faecalis or S. aureus and various concentrations of the five compounds. […] Importantly, P. aeruginosa, E. faecalis, and S. aureus use very different mechanisms to kill C. elegans (pyoverdine-mediated mitochondrial damage, gelatinase-mediated damage to the colonized intestine, and multi-toxin-mediated intestinal effacement and damage, respectively) ([29][–][33]). The ability of these compounds to rescue against multiple pathogens that utilize a diverse set of virulence factors and mechanisms of pathogenesis further supports the idea that at least a portion of these compounds’ activity is mediated by stimulating innate immunity.
FIG 2 A subset of LK molecules rescue against E. faecalis and S. aureus. […] Compounds were serially diluted 2-fold, and young adult glp-4(bn2) worms were incubated with the pathogen for 80 h (E. faecalis) or 96 h (S. aureus). The concentrations shown are based on the mean value for at least three replicates. (B and C) Percentages of dead C. elegans after exposure to E. faecalis (B) or S. aureus (C). A representative biological replicate is shown. Each condition included at least six wells per replicate, each well contained approximately 20 worms. Three biological replicates were performed. *, P < 0.05; **, P < 0.01; ***, P < 0.001. P values were calculated using Student’s t test. Error bars represent the standard error of the mean.
The E. faecalis infection assay was performed as previously described ([27]). A single colony was used to inoculate a 5 ml of BHI liquid culture. After 16 to 24 h, 400 µl of this culture was spread on a BHI agar plate and placed at 37°C for 24 h. Next, 384-well plates were made containing 10% BHI, and E. faecalis was removed from the plate by scraping and resuspended in S Basal medium to a final OD of 0.03. Compounds at the desired concentrations or DMSO (final concentration, 1%) were then added to each well. After 3 days, the worms were transferred to new plates using a 0.05% Tween solution to prevent background fluorescence from E. faecalis biofilm. Subsequent washing, staining, imaging, and image analysis was performed identically to Pseudomonas liquid killing. EC values were defined as the minimum concentration that provided statistically significant rescue. At least three biological replicates were performed.

[2] = system: glp-4(bn2) worms; assay: Longevity (life span) assay; conditions: 50 μM in NGM, E. coli OP50, Fig 3A
Protocol: To test the long-term toxicity of the hit compounds, life span assays were carried out by placing sterile, young adult glp-4(bn2) worms on NGM (standard nematode growth media, defined in Materials and Methods) seeded with Escherichia coli OP50. […] Sterile worms were used to eliminate the need to transfer worms between plates during life span assays, and we elected to use glp-4(bn2) to induce sterility instead of using wild-type worms sterilized with 5-fluoro-2′-deoxyuridine (FUDR) because the interaction of the compounds could generate artifacts during the long course of life span experiments.
Worms were scored daily by prodding. […] The viability was normalized to a DMSO solvent control. […] Error bars represent standard error of the mean.
Worms were picked onto agar plates seeded with 50 µl of concentrated E. coli OP50. Compounds were added to liquid agar before pouring plates. Worms were scored every day for death by prodding with a platinum wire. Worms that escaped the plate or died on the wall of the plate were censored. Each compound was tested in at least three biological replicates, each including 50 to 70 worms.

[3] = system: C. elegans host defense pathway genes; assay: nanoString expression of 115 immune- and stress-responsive genes; conditions: 100 μM LK molecules, 16 h
Protocol: The ratio of MIC to EC was determined for each of the 69 compounds.
Analysis of the expression of 115 immune- and stress-responsive genes using nanoString technology. Download Table S1, XLSX file, 0.02 MB.
For nanoString-based (nanoString Technologies, Seattle, WA) experiments, 2,000 wild-type, young adult worms were exposed to 100 μM LK molecules or DMSO control in S Basal medium in 6-well plates for 16 h. RNA purification and gene expression analysis were performed according to nanoString guidelines. Two biological replicates were tested for each condition.

COC(=O)/C=C/C(=O)Nc1ccccc1 [LK32]
E. faecalis EC [1]: 8 µM and 8 ± 0.0 µM | TD50 (time to 50% death), life span [2]: 8.8 days | B0024.4 expression, induction [3]: 2.44 fold | C02B4.2 nhr-17 expression, induction [3]: 5.68 fold | C06B3.7 expression, induction [3]: 4.23 fold | C07G3.2 irg-1 expression, induction [3]: 2.20 fold | C12C8.1 hsp-70 expression, induction [3]: 3.77 fold | C15F1.7 sod-1 expression, induction [3]: 4.46 fold | C29F7.2 expression, induction [3]: 2.80 fold | C31A11.5 oac-6 expression, induction [3]: 4.01 fold | C32D5.12 expression, induction [3]: 3.70 fold | C32H11.1 expression, induction [3]: 1.40 fold | C32H11.3 expression, induction [3]: 2.32 fold | C34G6.4 pgp-2 expression, induction [3]: 1.90 fold | C37C3.10 expression, induction [3]: 4.08 fold | C37H5.8 hsp-6 expression, induction [3]: 3.96 fold | C49G7.5 irg-2 expression, induction [3]: 4.83 fold | F08F8.5 numr-1 expression, induction [3]: 8.48 fold | F08H9.4 expression, induction [3]: 1.80 fold | F14F9.3 expression, induction [3]: 4.80 fold | F22B5.4 expression, induction [3]: 3.08 fold | F22H10.2 expression, induction [3]: 3.76 fold | F26A3.4 expression, induction [3]: 4.23 fold | F35E8.11 cdr-1 expression, induction [3]: 3.13 fold | F35G2.4 phy-2 expression, induction [3]: 4.53 fold | F37B12.2 gcs-1 expression, induction [3]: 7.02 fold | F43E2.8 hsp-4 expression, induction [3]: 2.75 fold | F44E5.5 expression, induction [3]: 3.34 fold | F49F1.6 expression, induction [3]: 2.28 fold | F49F1.7 expression, induction [3]: 2.35 fold | F49H6.13 expression, induction [3]: 6.69 fold | F54B8.4 expression, induction [3]: 2.74 fold | F55G11.2 expression, induction [3]: 3.21 fold | F59A7.1 clec-206 expression, induction [3]: 3.26 fold | F59B10.4 expression, induction [3]: 3.51 fold | H12D21.1 nspa-1 expression, induction [3]: 52.37 fold | H23N18.1 ugt-13 expression, induction [3]: 8.50 fold | H23N18.3 ugt-8 expression, induction [3]: 18.61 fold | K05B2.4 expression, induction [3]: 1.82 fold | K08F4.7 gst-4 expression, induction [3]: 18.20 fold | K09A9.1 nipi-3 expression, induction [3]: 4.75 fold | K10D11.2 expression, induction [3]: 2.89 fold | K10G4.3 expression, induction [3]: 2.75 fold | R03D7.6 gst-5 expression, induction [3]: 46.52 fold | R08H2.1 dhs-23 expression, induction [3]: 2.72 fold | R10E8.3 expression, induction [3]: 7.07 fold | T19D12.3 expression, induction [3]: 9.28 fold | T19H12.1 ugt-9 expression, induction [3]: 14.98 fold | T21E8.1 pgp-6 expression, induction [3]: 2.05 fold | T22B7.3 expression, induction [3]: 6.13 fold | T24C4.4 expression, induction [3]: 3.75 fold | T24E12.5 expression, induction [3]: 2.28 fold | T27E4.3 hsp-16.48 expression, induction [3]: 5.22 fold | T27E4.8 hsp-16.1 expression, induction [3]: 4.29 fold | T27F6.8 expression, induction [3]: 5.12 fold | T28C12.4 expression, induction [3]: 9.85 fold | W02D9.10 expression, induction [3]: 4.35 fold | Y22D7AL.5 hsp-60 expression, induction [3]: 4.03 fold | Y38E10A.15 nspe-7 expression, induction [3]: 2.18 fold | Y46H3A.2 hsp-16.41 expression, induction [3]: 4.09 fold | Y46H3A.3 hsp-16.2 expression, induction [3]: 4.04 fold | Y56A3A.33 expression, induction [3]: 4.81 fold | Y58A7A.5 expression, induction [3]: 8.58 fold | ZC376.7 atfs-1 expression, induction [3]: 5.61 fold | ZC443.6 ugt-16 expression, induction [3]: 3.20 fold | ZK697.6 gst-21 expression, induction [3]: 2.57 fold

CNC(=O)Oc1c(Br)cc2sc(=O)oc2c1Br [LK34]
E. faecalis EC [1]: 18.7 µM and 18.7 ± 8.7 µM | TD50 (time to 50% death), life span [2]: 10.1 days | B0024.4 expression, induction [3]: 0.79 fold | C02B4.2 nhr-17 expression, induction [3]: 1.60 fold | C03G6.15 cyp-35A2 expression, induction [3]: 2.32 fold | C06B3.3 cyp-35C1 expression, induction [3]: 2.40 fold | C06B3.7 expression, induction [3]: 2.34 fold | C07G3.2 irg-1 expression, induction [3]: 2.14 fold | C12C8.1 hsp-70 expression, induction [3]: 2.02 fold | C15F1.7 sod-1 expression, induction [3]: 2.23 fold | C29F7.2 expression, induction [3]: 1.42 fold | C31A11.5 oac-6 expression, induction [3]: 3.81 fold | C32D5.12 expression, induction [3]: 2.84 fold | C32H11.1 expression, induction [3]: 5.22 fold | C32H11.3 expression, induction [3]: 4.04 fold | C34G6.4 pgp-2 expression, induction [3]: 1.78 fold | C37C3.10 expression, induction [3]: 2.56 fold | C37H5.8 hsp-6 expression, induction [3]: 2.28 fold | C49G7.5 irg-2 expression, induction [3]: 2.61 fold | F08F8.5 numr-1 expression, induction [3]: 3.73 fold | F08H9.4 expression, induction [3]: 2.08 fold | F14F9.3 expression, induction [3]: 2.72 fold | F22B5.4 expression, induction [3]: 0.86 fold | F22H10.2 expression, induction [3]: 1.72 fold | F26A3.4 expression, induction [3]: 1.09 fold | F35E8.11 cdr-1 expression, induction [3]: 3.15 fold | F35G2.4 phy-2 expression, induction [3]: 1.71 fold | F37B12.2 gcs-1 expression, induction [3]: 4.32 fold | F43E2.8 hsp-4 expression, induction [3]: 2.24 fold | F44E5.5 expression, induction [3]: 1.49 fold | F49F1.6 expression, induction [3]: 1.85 fold | F49F1.7 expression, induction [3]: 3.64 fold | F49H6.13 expression, induction [3]: 2.55 fold | F54B8.4 expression, induction [3]: 1.78 fold | F55G11.2 expression, induction [3]: 1.39 fold | F59A7.1 clec-206 expression, induction [3]: 2.12 fold | F59B10.4 expression, induction [3]: 1.89 fold | H12D21.1 nspa-1 expression, induction [3]: 39.17 fold | H23N18.1 ugt-13 expression, induction [3]: 2.95 fold | H23N18.3 ugt-8 expression, induction [3]: 5.59 fold | K05B2.4 expression, induction [3]: 3.62 fold | K07C6.3 cyp-35B2 expression, induction [3]: 4.00 fold | K07G6.4 cyp-35B1 expression, induction [3]: 2.31 fold | K08F4.7 gst-4 expression, induction [3]: 9.69 fold | K09A9.1 nipi-3 expression, induction [3]: 1.52 fold | K09D9.2 cyp-35A3 expression, induction [3]: 3.13 fold | K10D11.2 expression, induction [3]: 1.97 fold | K10G4.3 expression, induction [3]: 2.74 fold | R03D7.6 gst-5 expression, induction [3]: 9.49 fold | R08H2.1 dhs-23 expression, induction [3]: 3.44 fold | R10E8.3 expression, induction [3]: 2.60 fold | T19D12.3 expression, induction [3]: 3.00 fold | T19H12.1 ugt-9 expression, induction [3]: 2.48 fold | T21E8.1 pgp-6 expression, induction [3]: 2.62 fold | T22B7.3 expression, induction [3]: 1.84 fold | T24C4.4 expression, induction [3]: 2.67 fold | T24E12.5 expression, induction [3]: 4.33 fold | T27E4.3 hsp-16.48 expression, induction [3]: 1.73 fold | T27E4.8 hsp-16.1 expression, induction [3]: 1.82 fold | T27F6.8 expression, induction [3]: 1.45 fold | T28C12.4 expression, induction [3]: 1.59 fold | W02D9.10 expression, induction [3]: 1.15 fold | Y22D7AL.5 hsp-60 expression, induction [3]: 1.77 fold | Y38E10A.15 nspe-7 expression, induction [3]: 2.14 fold | Y46H3A.2 hsp-16.41 expression, induction [3]: 2.00 fold | Y46H3A.3 hsp-16.2 expression, induction [3]: 1.72 fold | Y56A3A.33 expression, induction [3]: 1.77 fold | Y58A7A.5 expression, induction [3]: 3.10 fold | ZC376.7 atfs-1 expression, induction [3]: 1.86 fold | ZC443.6 ugt-16 expression, induction [3]: 2.76 fold | ZK697.6 gst-21 expression, induction [3]: 2.66 fold
